Data as given in patent USRE49579E1, “Non-peptidic GAPDH aggregation inhibitor” (University Public Corporation Osaka, priority 2015, dated 2023).
Where two headings read alike, the source gives them in different places. Residues, ends and D or L forms follow the SMILES beside them. No end group written: not given here.

Experiments:
purified human GAPDH [1] = target: T1, purified human GAPDH (Homo sapiens, UniProt P04406); assay: GAPDH aggregation inhibitory activity (first screening, turbidity at 405 nm); assay type: biochemical; conditions: for 1st. Screening Potency Inhibitory activity (%) (50 μM at 48 h) in vitro: 50 μM peptide, 5 μM GAPDH, 37° C.
Method: As the first screening, GAPDH aggregation inhibitory activities, which represents potency, were measured. According to a method described in Patent Document 1, a peptide was added to a solution in which 5 μM purified human GAPDH was dissolved in Buffer G2 so that, the concentration of the peptide was 50 μM, and then incubated at 37° C. for 48 hours. Then the aggregation inhibitory rate of GAPDH was measured using the turbidity (absorbance at 405 nm) of the solution.

stroke model mouse = assay: Cerebroprotective effects in a stroke model (MCAO); assay type: in vivo; conditions: 60 nmol/mouse intraventricular, FIG. 4
Method: To a stroke model mouse, 60 nmol/mouse of a peptide was intraventricularly administered, and the reduction in cerebral infarction volume and the improvement in neurological symptoms after 24 hours were determined. The stroke model mouse was prepared in accordance with a method by of Andrabi et al. (Andrabi et al., Nat Med., 2011, June; 17(6): 692-9). A mouse was maintained under the state of ischemia for 30 minutes, and then perfusion was re-started. The cerebral infarction volume was measured […] after ischemia started. Further, in accordance with the method by Andrabi et al. (supra), a neurological score was determined for neurological symptoms of the mouse to evaluate the improvement in neurological symptoms.

[2] = tested on: Aβ1-40 induced PC12 cell death; assay: Protective effects on amyloid β induced cell death in the presence of GAPDH-Seeds; assay type: cell-based; conditions: GAPDH-Seeds (1%), GAI-17 50 μM, FIG. 2
Aβ25-35 = target: T2, Aβ25-35 (Homo sapiens, UniProt P05067); assay: Specificity: effect on amyloid formation (second screening C, fluorescence); assay type: biochemical; conditions: 25 μM amyloid β, 37° C., 1 hour
T2 construct: Aβ25-35
Method: (§1) As the second screening, A) the viability of PC12 cells in the presence of a peptide, which represented cytotoxicity, B) effects on the GAPDH enzymatic activity, which represented side effects, and C) effects on amyloid formation, which represented specificity, were each investigated.
A solution containing 25 μM […] was incubated at 37° C. for 1 hour, and formation of amyloid aggregates was evaluated using the fluorescence intensity from the solution in accordance with a method described in Patent Document 1.

[3] = Cytotoxicity: viability of PC12 cells in the presence of peptide (second screening A); assay type: cell-based; conditions: rat, PC12 cells
Method: as §1
(§2) PC12 cells cultured to 80% confluence were cultured at 37° C. for 72 hours in the presence of 50 μM peptide, and the cell viability was measured in accordance with the conventional method.

Aβ40-treated PC12 cells = assay: Cytoprotective effects on Aβ1-40 induced PC12 cell death (third screening); assay type: cell-based
purified human GAPDH [4] = target: T1, purified human GAPDH; assay: Side effects: effect on GAPDH enzymatic activity (second screening B); assay type: biochemical; conditions: for 2nd. Screening Side effect Effect on GAPDH Activity (%) in vitro: 10 μM peptide, 0.01 μM GAPDH
Method: as §1
A 10 μM peptide was added to 0.01 μM purified human GAPDH, and the enzymatic activity of GAPDH was measured in accordance with a method described in Patent Document 1.

PC12 cells = assay: Cytotoxicity: viability of PC12 cells in the presence of peptide (second screening A); assay type: cell-based; conditions: FIG. 7
Method: as §1, §2

[5] = read-out: IC50 (MEAN ± S.E.) for the GAPDH aggregation inhibitory activity in vitro

T1 sequence (P04406 whole entry): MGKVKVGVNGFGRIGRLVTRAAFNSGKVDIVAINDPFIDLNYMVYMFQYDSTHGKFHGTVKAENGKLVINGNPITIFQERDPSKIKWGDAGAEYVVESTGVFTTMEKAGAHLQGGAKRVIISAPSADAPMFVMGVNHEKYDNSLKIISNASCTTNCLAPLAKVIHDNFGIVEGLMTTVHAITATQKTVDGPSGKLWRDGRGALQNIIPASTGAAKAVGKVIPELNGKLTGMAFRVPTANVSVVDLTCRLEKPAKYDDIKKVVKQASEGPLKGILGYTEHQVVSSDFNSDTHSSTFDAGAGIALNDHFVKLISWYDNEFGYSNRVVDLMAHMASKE

C[C@@H](O)[C@H](NC(=O)[C@H](CS)NC(=O)[C@@H](N)CO)C(=O)O [GAI-17, SCT] (H-Ser-Cys-Thr-OH; N-terminus and C-terminus assumed)
1st. Screening Potency Inhibitory activity (%) (50 μM at 48 h) in vitro (purified human GAPDH [1]): 97.7 ± 1.48%
IC50 (purified human GAPDH [1]; [5]): 1190 ± 150 nM
cerebral infarction volume (stroke model mouse): decrease cerebral infarction volume
neurological symptoms (stroke model mouse; after 24 hours): improve neurological symptoms
protective effects on amyloid β40 induced PC12 cell death [2]: protective effects
2nd. Screening Specificity Effect on Aβ25-35 amyloidogenesis (%) in vitro (Aβ25-35): 102 ± 6.39%
viability at 72 h, 50 µM [3]: 100 ± 0.76%
3rd. Screening Effectiveness Cytoprotection (%) in Aβ40-treated PC12 cells (Aβ40-treated PC12 cells): 99.4 ± 1.21%
2nd. Screening Side effect Effect on GAPDH Activity (%) in vitro (purified human GAPDH [4]): 97.9 ± 0.72%

C[C@@H](O)CNC(=O)[C@H](CS)NCCCO [TN-101]
aggregation inhibitory activity in the first screening, compared with lead compound (purified human GAPDH [1]; FIG. 6): superior to that of the lead compound
IC50 (purified human GAPDH [1]; [5]): 900 ± 110 nM
cytotoxicity in the second screening, compared with lead compound (PC12 cells): comparable with or smaller than those of the lead compound
GAPDH enzymatic activity in the second screening (purified human GAPDH [4]; FIG. 7): uninhibited GAPDH enzymatic activity

SNASCTTNAL [GAI-1, SNASCTTNAL, reference compound]
IC50 (purified human GAPDH [1]): 50000 ± 200 nM
1st. Screening Potency Inhibitory activity (%) (50 μM at 48 h) in vitro (purified human GAPDH [1]): 53.2 ± 1.73%
2nd. Screening Specificity Effect on Aβ25-35 amyloidogenesis (%) in vitro (Aβ25-35): 103 ± 9.94%
viability at 72 h, 50 µM ([3]; 50 μM peptide, 37° C., 72 hours, read-out: 2nd. Screening Cytotoxicity Cell viability (%) in PC12 cells): 104 ± 1.37%
3rd. Screening Effectiveness Cytoprotection (%) in Aβ40-treated PC12 cells (Aβ40-treated PC12 cells): 48.0 ± 3.85%
2nd. Screening Side effect Effect on GAPDH Activity (%) in vitro (purified human GAPDH [4]): 105 ± 1.80%
